Assay results reported in patent US11174252B2, “Heterocyclic compounds as kinase inhibitors” (priority 2018, dated 2021).
Read-outs that look alike come from different tables or passages of the source.

How the values were obtained:
CDK6 = CDK6 (Homo sapiens (Human), UniProt Q00534); assay: biochemical; format: biochemical
PI3Kδ kinase = PI3Kδ kinase (Homo sapiens (Human), UniProt O00329); assay: PI3Kδ kinase ADP-Glo assay (Reaction Biology Corporation)
DU4475 = assay: Cancer cell proliferation assay, single agent; format: cell-based; details: Homo sapiens
MCF-7 = assay: Cancer cell proliferation assay, single agent; format: cell-based; details: Homo sapiens
FMS kinase = FMS kinase (Homo sapiens (Human), UniProt P07333); assay: LanthaScreen kinase assay (ATP, fluorescent-PolyGT substrate, TR-FRET); format: biochemical
Chain of FMS kinase (P07333 20-972): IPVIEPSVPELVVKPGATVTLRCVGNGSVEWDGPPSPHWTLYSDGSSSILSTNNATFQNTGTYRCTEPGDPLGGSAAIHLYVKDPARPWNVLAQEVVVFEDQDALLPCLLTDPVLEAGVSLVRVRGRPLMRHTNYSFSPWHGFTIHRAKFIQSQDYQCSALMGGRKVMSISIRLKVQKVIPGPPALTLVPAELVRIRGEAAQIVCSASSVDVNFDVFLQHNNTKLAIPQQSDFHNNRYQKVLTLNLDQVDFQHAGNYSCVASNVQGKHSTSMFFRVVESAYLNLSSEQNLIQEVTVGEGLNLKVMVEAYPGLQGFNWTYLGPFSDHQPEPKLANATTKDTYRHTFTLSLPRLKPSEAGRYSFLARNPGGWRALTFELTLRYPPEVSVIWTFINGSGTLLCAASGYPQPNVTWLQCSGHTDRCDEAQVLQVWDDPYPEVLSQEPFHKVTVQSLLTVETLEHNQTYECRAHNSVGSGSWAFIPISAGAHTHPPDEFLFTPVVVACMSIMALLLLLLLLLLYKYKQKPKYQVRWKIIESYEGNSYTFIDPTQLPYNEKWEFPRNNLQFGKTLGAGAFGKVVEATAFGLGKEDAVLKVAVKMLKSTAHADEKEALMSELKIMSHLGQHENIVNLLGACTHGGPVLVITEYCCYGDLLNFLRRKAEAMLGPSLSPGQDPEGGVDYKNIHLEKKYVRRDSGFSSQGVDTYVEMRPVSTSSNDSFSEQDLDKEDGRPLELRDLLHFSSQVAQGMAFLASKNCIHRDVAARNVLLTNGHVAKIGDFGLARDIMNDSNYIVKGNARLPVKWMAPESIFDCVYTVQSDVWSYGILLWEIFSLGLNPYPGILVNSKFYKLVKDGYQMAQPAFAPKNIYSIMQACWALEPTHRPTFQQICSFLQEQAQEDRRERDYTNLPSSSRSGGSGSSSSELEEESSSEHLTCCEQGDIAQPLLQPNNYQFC

CDK4 = CDK4 (Homo sapiens (Human), UniProt P11802); assay: In vitro kinase inhibition, luminescence (ADP-Glo) with retinoblastoma substrate; format: biochemical
Chain of CDK4 (P11802 whole entry): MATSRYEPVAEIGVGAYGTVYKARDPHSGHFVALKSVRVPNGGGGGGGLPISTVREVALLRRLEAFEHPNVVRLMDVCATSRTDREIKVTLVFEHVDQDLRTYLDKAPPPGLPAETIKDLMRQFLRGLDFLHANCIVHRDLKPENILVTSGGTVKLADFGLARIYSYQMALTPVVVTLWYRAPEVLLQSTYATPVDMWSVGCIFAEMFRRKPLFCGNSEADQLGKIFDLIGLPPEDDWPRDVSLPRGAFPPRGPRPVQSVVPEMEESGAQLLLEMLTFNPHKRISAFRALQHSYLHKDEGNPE
Chain of CDK4 (P24385 whole entry partner): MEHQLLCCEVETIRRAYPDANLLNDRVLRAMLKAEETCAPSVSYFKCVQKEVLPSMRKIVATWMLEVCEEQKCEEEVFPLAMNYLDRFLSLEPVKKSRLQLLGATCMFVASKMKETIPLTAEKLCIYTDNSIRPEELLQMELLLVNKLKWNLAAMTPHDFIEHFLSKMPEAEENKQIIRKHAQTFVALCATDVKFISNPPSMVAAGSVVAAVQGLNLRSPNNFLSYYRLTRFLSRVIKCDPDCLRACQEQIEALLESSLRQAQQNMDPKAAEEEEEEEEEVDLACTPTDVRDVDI

CDK1 (cyclin B) = CDK1 (cyclin B) (Homo sapiens (Human), UniProt P06493); assay: Z'-LYTE kinase assay; format: biochemical
Chain of CDK1 (cyclin B) (P06493 whole entry): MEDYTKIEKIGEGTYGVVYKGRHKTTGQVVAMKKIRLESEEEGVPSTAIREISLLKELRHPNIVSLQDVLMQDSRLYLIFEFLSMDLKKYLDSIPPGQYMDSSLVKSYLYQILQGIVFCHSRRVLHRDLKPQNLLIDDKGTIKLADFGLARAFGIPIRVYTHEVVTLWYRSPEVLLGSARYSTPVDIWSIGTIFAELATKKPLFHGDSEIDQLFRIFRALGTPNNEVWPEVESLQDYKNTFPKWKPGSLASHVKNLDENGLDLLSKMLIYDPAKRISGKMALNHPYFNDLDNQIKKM
Chain of CDK1 (cyclin B) (P14635 whole entry partner): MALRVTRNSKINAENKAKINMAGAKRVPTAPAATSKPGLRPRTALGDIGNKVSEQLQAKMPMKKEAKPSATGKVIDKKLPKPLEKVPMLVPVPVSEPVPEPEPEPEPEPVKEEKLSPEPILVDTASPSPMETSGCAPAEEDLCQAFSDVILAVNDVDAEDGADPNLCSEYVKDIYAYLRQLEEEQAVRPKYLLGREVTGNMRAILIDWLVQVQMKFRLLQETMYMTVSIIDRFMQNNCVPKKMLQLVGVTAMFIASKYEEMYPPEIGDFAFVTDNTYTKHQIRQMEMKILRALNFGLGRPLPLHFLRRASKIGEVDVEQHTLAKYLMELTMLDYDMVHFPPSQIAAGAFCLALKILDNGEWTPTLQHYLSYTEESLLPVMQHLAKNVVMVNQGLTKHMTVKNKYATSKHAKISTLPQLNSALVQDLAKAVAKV
Source text: The following equations were used for Z′-LYTE™ Screening Assay Data Analysis.

CDK2 (cyclin A) = CDK2 (cyclin A) (Homo sapiens (Human), UniProt P24941); assay: Z'-LYTE kinase assay; format: biochemical
Protocol: IC50 values of compounds against CDK2 (cyclin A) were determined by Z'-LYTETM. […] The following equations were used for Z'-LYTETM Screening Assay Data Analysis.

[1] = DU-4475, read-out: IC50 (nM) DU4475
[2] = MCF7, read-out: IC50 (nM) MCF-7
[3] = MCF7, MCF-7 cells, treated for 24-168 hours, read-out: IC50 (nM) MCF-7
[4] = DU-4475, DU4475 cells, treated for 24-168 hours, read-out: IC50 (nM) DU4475

Chain of PI3Kδ kinase (O00329 whole entry): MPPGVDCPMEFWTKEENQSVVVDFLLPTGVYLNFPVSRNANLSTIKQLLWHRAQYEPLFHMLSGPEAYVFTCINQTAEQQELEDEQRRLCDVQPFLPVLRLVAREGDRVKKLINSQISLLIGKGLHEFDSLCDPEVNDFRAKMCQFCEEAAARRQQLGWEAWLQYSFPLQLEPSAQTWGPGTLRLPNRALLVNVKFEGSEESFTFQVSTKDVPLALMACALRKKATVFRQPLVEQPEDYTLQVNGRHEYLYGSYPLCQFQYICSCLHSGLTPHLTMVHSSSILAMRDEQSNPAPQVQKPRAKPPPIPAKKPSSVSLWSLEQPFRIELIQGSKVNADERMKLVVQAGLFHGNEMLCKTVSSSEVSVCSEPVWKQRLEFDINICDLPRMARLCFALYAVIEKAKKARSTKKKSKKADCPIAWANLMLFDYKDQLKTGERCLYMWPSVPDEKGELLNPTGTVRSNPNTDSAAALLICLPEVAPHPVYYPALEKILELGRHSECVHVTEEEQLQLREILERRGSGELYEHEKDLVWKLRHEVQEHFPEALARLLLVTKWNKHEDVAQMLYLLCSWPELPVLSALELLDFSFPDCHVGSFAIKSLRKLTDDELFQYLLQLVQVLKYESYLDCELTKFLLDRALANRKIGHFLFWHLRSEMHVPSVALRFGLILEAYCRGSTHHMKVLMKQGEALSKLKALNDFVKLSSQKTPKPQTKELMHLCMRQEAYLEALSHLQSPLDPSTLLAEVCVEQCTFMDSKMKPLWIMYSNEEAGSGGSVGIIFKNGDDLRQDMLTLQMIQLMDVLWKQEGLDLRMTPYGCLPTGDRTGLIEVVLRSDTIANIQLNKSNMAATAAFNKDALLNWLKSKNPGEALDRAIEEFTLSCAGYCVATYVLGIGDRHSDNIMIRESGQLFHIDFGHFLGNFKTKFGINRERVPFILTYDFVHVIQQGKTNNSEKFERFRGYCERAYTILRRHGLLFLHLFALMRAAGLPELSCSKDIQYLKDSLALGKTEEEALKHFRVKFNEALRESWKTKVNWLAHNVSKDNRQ
Chain of PI3Kδ kinase (P27986 whole entry partner): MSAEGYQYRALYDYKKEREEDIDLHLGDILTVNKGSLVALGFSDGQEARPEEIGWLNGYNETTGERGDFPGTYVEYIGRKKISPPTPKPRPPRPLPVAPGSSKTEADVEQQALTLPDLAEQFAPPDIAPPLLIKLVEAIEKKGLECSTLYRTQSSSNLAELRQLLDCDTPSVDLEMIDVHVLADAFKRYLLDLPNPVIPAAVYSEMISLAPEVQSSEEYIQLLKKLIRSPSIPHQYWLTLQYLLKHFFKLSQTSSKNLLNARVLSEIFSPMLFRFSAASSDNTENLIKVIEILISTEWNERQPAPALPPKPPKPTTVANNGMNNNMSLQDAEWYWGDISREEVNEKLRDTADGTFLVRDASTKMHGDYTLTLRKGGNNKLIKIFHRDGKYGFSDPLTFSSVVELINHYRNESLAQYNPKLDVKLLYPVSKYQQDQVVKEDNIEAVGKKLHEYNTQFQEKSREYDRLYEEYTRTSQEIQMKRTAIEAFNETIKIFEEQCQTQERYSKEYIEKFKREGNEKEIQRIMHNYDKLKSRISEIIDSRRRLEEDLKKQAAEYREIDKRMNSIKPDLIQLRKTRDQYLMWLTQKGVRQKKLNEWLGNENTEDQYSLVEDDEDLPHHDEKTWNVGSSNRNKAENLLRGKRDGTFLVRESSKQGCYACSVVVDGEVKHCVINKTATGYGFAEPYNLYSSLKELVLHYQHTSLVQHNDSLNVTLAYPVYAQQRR

| IC50 (MCF-7; [3]) [nM] | IC50 (CDK2 (cyclin A)) [nM] | IC50 (DU4475; [4]) [nM] | Compound | IC50 (CDK6) [nM] | IC50 (PI3Kδ kinase; read-out: PI3Kδ IC50) [nM] | IC50 (DU4475; [1]) [nM] | IC50 (MCF-7; [2]) [nM] | IC50 (FMS kinase) [nM] | IC50 (CDK4) [nM] | IC50 (PI3Kδ kinase) [nM] | IC50 (CDK1 (cyclin B)) [nM] |
| --- | --- | --- | --- | --- | --- | --- | --- | --- | --- | --- | --- |
| – | – | – | CN1CCC(c2ccc(Nc3ncc(F)c(-c4cc(F)c5c(c4)N(C4CCCC4)CCO5)n3)cc2F)CC1 [Compound 471, 4-(4-cyclopentyl-8-fluoro-3,4-dihydro-2H-benzo[b][1,4]oxazin-6-yl)-5-fluoro-N-(3-fluoro-4-(1-methylpiperidin-4-yl)phenyl)pyrimidin-2-amine] | 53 | 1990 | 110 | 45 | 454 | 10 | – | – |
| – | – | – | CC(C)N1CCOc2c(F)cc(-c3nc(Nc4ccc(N5CCN(C)CC5=O)cn4)ncc3F)cc21 [Compound 472, 1-(6-((5-fluoro-4-(8-fluoro-4-isopropyl-3,4-dihydro-2H-benzo[b][1,4]oxazin-6-yl)pyrimidin-2-yl)amino)pyridin-3-yl)-4-methylpiperazin-2-one] | – | – | 570 | 30 | – | 2.5 | 29100 | – |
| – | – | – | CC(C)CN1CCOc2c(F)cc(-c3nc(Nc4ccc(N5CCC(N(C)C)CC5)c(F)c4)ncc3F)cc21 [Compound 480, N-(4-(4-(dimethylamino)piperidin-1-yl)-3-fluorophenyl)-5-fluoro-4-(8-fluoro-4-isobutyl-3,4-dihydro-2H-benzo[b][1,4]oxazin-6-yl)pyrimidin-2-amine] | 14 | 1160 | 435 | 190 | 82 | 5.5 | – | – |
| – | – | – | OC1CCN(c2ccc(Nc3ncc(F)c(-c4cc(F)c5c(c4)N(C4CCC4)CCO5)n3)nc2)CC1 [Compound 486, 1-(6-((4-(4-cyclobutyl-8-fluoro-3,4-dihydro-2H-benzo[b][1,4]oxazin-6-yl)-5-fluoropyrimidin-2-yl)amino)pyridin-3-yl)piperidin-4-ol] | 41 | > 50000 | 1450 | 325 | > 5000 | 16 | – | – |
| – | – | – | Fc1cnc(Nc2ccc(N3CCOCC3)cn2)nc1-c1cc(F)c2c(c1)N(C1CCC1)CCO2 [Compound 487, 4-(4-cyclobutyl-8-fluoro-3,4-dihydro-2H-benzo[b][1,4]oxazin-6-yl)-5-fluoro-N-(5-morpholinopyridin-2-yl)pyrimidin-2-amine] | 112 | > 50000 | 2170 | 615 | > 5000 | 55 | – | – |
| – | – | – | CC(C)CN1CCOc2c(F)cc(-c3nc(Nc4ccc(N5CCC(O)CC5)cn4)ncc3F)cc21 [Compound 488, 1-(6-((5-fluoro-4-(8-fluoro-4-isobutyl-3,4-dihydro-2H-benzo[b][1,4]oxazin-6-yl)pyrimidin-2-yl)amino)pyridin-3-yl)piperidin-4-ol] | 200 | > 50000 | 2560 | 830 | > 5000 | 101 | – | – |
| 465 | – | 450 | CC(C)N1CCOc2c(F)cc(-c3nc(Nc4ccc(N5CCC(CCO)CC5)cn4)ncc3F)cc21 [Compound 491, 2-(1-(6-((5-fluoro-4-(8-fluoro-4-isopropyl-3,4-dihydro-2H-benzo[b][1,4]oxazin-6-yl)pyrimidin-2-yl)amino)pyridin-3-yl)piperidin-4-yl)ethan-1-ol] | – | > 50000 | – | – | 4590 | – | – | – |
| – | – | – | CC(C)N1CCOc2c(F)cc(-c3nc(Nc4cnn(C5CCN(C)CC5)c4)ncc3F)cc21 [Compound 497, 5-fluoro-4-(8-fluoro-4-isopropyl-3,4-dihydro-2H-benzo[b][1,4]oxazin-6-yl)-N-(1-(1-methylpiperidin-4-yl)-1H-pyrazol-4-yl)pyrimidin-2-amine] | – | – | 95 | 40 | – | – | – | 85 |
| 170 | 155 | 465 | CC(C)N1CCOc2c(F)cc(-c3nc(Nc4ccc(C5CCN(C)C5)cn4)ncc3F)cc21 (centres unmarked) [Compound 498, 5-fluoro-4-(8-fluoro-4-isopropyl-3,4-dihydro-2H-benzo[b][1,4]oxazin-6-yl)-N-(5-(1-methylpyrrolidin-3-yl)pyridin-2-yl)pyrimidin-2-amine] | 3 | – | – | – | – | 1 | – | 223 |
| 435 | 74 | 405 | CC(C)N1CCOc2c(F)cc(-c3nc(Nc4ccc5c(c4)C(=O)NCC5)ncc3F)cc21 [Compound 502, 7-((5-fluoro-4-(8-fluoro-4-isopropyl-3,4-dihydro-2H-benzo[b][1,4]oxazin-6-yl)pyrimidin-2-yl)amino)-3,4-dihydroisoquinolin-1(2H)-one] | 28 | – | – | – | – | 12 | – | 69 |
| < 5 | 3.2 | 20 | CC(C)N1CCOc2c(F)cc(-c3nc(Nc4ccc(S(N)(=O)=O)cc4)ncc3F)cc21 [Compound 507, 4-((5-fluoro-4-(8-fluoro-4-isopropyl-3,4-dihydro-2H-benzo[b][1,4]oxazin-6-yl)pyrimidin-2-yl)amino)benzenesulfonamide] | 13 | – | – | – | – | 6 | – | 1.3 |
| 1090 | 33 | 1480 | Fc1cnc(Nc2ccc3c(n2)CCNC3)nc1-c1cc(F)c2c(c1)N(C1CCCC1)CCO2 [Compound 509, N-(4-(4-cyclopentyl-8-fluoro-3,4-dihydro-2H-benzo[b][1,4]oxazin-6-yl)-5-fluoropyrimidin-2-yl)-5,6,7,8-tetrahydro-1,6-naphthyridin-2-amine] | 10 | – | – | – | – | 5 | – | 78 |
| 17 | 3 | 50 | CC(C)N1CCOc2c(F)cc(-c3nc(Nc4ccc(S(=O)(=O)NCCN(C)C)cc4)ncc3F)cc21 [Compound 513, N-(2-(dimethylamino)ethyl)-4-((5-fluoro-4-(8-fluoro-4-isopropyl-3,4-dihydro-2H-benzo[b][1,4]oxazin-6-yl)pyrimidin-2-yl)amino)benzenesulfonamide] | 8 | – | – | – | – | 2 | – | < 1 |

| Compound | IC50 (MCF-7; [3]) [nM] | IC50 (CDK2 (cyclin A)) [nM] | IC50 (DU4475; [4]) [nM] | IC50 (CDK6) [nM] | IC50 (PI3Kδ kinase; read-out: PI3Kδ IC50) [nM] | IC50 (DU4475; [1]) [nM] | IC50 (MCF-7; [2]) [nM] | IC50 (FMS kinase) [nM] | IC50 (CDK4) [nM] | IC50 (PI3Kδ kinase) [nM] | IC50 (CDK1 (cyclin B)) [nM] |
| --- | --- | --- | --- | --- | --- | --- | --- | --- | --- | --- | --- |
| CC(C)CN1CCOc2c(F)cc(-c3nc(Nc4ccc(C5CCN(C)CC5)c(F)c4)ncc3F)cc21 [Compound 476, 5-fluoro-N-(3-fluoro-4-(1-methylpiperidin-4-yl)phenyl)-4-(8-fluoro-4-isobutyl-3,4-dihydro-2H-benzo[b][1,4]oxazin-6-yl)pyrimidin-2-amine] | 65 | – | – | 25 | 703 | 135 | – | 174 | 4 | – | – |
| CC(C)CN1CCOc2c(F)cc(-c3nc(Nc4ccc(C5CCN(C)CC5)cn4)ncc3F)cc21 [Compound 479, 5-fluoro-4-(8-fluoro-4-isobutyl-3,4-dihydro-2H-benzo[b][1,4]oxazin-6-yl)-N-(5-(1-methylpiperidin-4-yl)pyridin-2-yl)pyrimidin-2-amine] | – | 44 | – | 5 | – | – | 240 | 2600 | 2.5 | – | 213 |
| CC(C)CN1CCOc2c(F)cc(-c3nc(Nc4ccc(N5CCOCC5)cn4)ncc3F)cc21 [Compound 489, 5-fluoro-4-(8-fluoro-4-isobutyl-3,4-dihydro-2H-benzo[b][1,4]oxazin-6-yl)-N-(5-morpholinopyridin-2-yl)pyrimidin-2-amine] | 1820 | – | – | 159 | > 50000 | 4500 | – | > 5000 | 90 | – | – |
| CC(C)N1CCOc2c(F)cc(-c3nc(Nc4ccc(N5CCN(CCO)CC5)cn4)ncc3F)cc21 [Compound 490, 2-(4-(6-((5-fluoro-4-(8-fluoro-4-isopropyl-3,4-dihydro-2H-benzo[b][1,4]oxazin-6-yl)pyrimidin-2-yl)amino)pyridin-3-yl)piperazin-1-yl)ethan-1-ol] | 80 | – | – | – | > 50000 | 420 | – | 2120 | – | – | – |
| CC(C)N1CCOc2c(F)cc(-c3nc(Nc4cc(C5CCN(C)CC5)no4)ncc3F)cc21 [Compound 495, N-(5-fluoro-4-(8-fluoro-4-isopropyl-3,4-dihydro-2H-benzo[b][1,4]oxazin-6-yl)pyrimidin-2-yl)-3-(1-methylpiperidin-4-yl)isoxazol-5-amine] | – | 2 | – | – | – | 310 | 110 | – | – | – | 5 |
| CC(C)N1CCOc2c(F)cc(-c3nc(Nc4cc(C5CCN(C)CC5)n[nH]4)ncc3F)cc21 [Compound 499, 5-fluoro-4-(8-fluoro-4-isopropyl-3,4-dihydro-2H-benzo[b][1,4]oxazin-6-yl)-N-(3-(1-methylpiperidin-4-yl)-1H-pyrazol-5-yl)pyrimidin-2-amine] | 175 | 19 | – | – | – | 345 | – | – | – | – | 69 |
| CC(C)N1CCOc2c(F)cc(-c3nc(Nc4ccc(N5CCC(CN)CC5)cn4)ncc3F)cc21 [Compound 518, N-(5-(4-(aminomethyl)piperidin-1-yl)pyridin-2-yl)-5-fluoro-4-(8-fluoro-4-isopropyl-3,4-dihydro-2H-benzo[b][1,4]oxazin-6-yl)pyrimidin-2-amine] | 1020 | 560 | – | 28 | – | 1330 | – | – | 4 | – | 1190 |
